Read-outs that look alike come from different tables or passages of the source.
Tests used:
Proteasome = Proteasome (Homo sapiens, UniProt P28074); assay: X-boroLeu proteasome inhibition: thioxamide v. oxoamide; format: biochemical; settings: IC50 ph 7.6 to ph 2.0
DP-IV = DP-IV (Sus scrofa (Pig), UniProt P22411); assay: DPP IV inhibition: thioxamide v. oxoamide; format: biochemical, porcine; settings: for Inactivation Index: IC50 pH 8.0 to pH 2.0
Experimental: The inhibitory activity of a compound may be tested easily. […] A compound is then screened for its ability to inhibit the protease activity of DP-IV with respect to a […] substrate. […] Briefly, a reaction containing 50 micromol sodium Hepes (pH 7.8), 10 micromol Ala-Pro-p-nitroanilide, 6 milliunits of DP-IV, and 2% (vol/vol) dimethylformamide in a total volume of 1.0 mL. The reaction was initiated by the addition of enzyme and reaction rates were measured at 25 C; formation of reaction product (para-nitroanilide) in the presence and absence of a test compound can be detected photometrically, e.g., at 410 nm.

[1] = Inactivation at pH 7.8 followed by 1H NMR; format: physicochemical; settings: sodium phosphate buffer; pH jump from pH 2 to pH 7.8, 1H NMR integrals fit to single exponential; read-out: half-life for the inactivation reaction
DPPIV [2] = target: T1, DPPIV (Homo sapiens (Human), UniProt P27487); assay: DPIV inhibition assay (Examples 2 and 3); format: biochemical; settings: for DPPIV Ratio: IC50 pH 7.8 to pH 2
Experimental: (§1) The inhibitor solution is prepared by dissolving 3-5 mg of inhibitor in pH 2 solution (0.01 N HCl), such that the concentration of the solution is equal to 1 mg/10 mL. A 10 μL sample of this solution is then added to 990 μL of pH 8 buffer (0.1 M HEPES, 0.14 M NaCl), and the solution is allowed to stand at room temperature overnight.
(§2) The substrate solution is prepared by dissolving 2.0 mg of L-alanyl-L-proline-para-nitroanilide into 20 mL of pH 8 buffer.
(§3) 250 μL of enzyme solution is added to well #B1 to #H1, #A2 to #H2, and #A3 to #H3 of a 96 well plate, while well #A1 receives 250 μL of pH 8 buffer instead of enzyme solution.
(§4) A 1:10 dilution is then performed by adding inhibitor solution to #A5 and the solution is mixed well before transferring 10 μL of this solution from #A5 to #B5. The solution in #B5 is then mixed well before transferring 10 μL of this solution from #B5 to #C5. The solution in #C5 is then mixed well before transferring 10 μL of this solution from #C5 to #D5. The solution in #D5 is then mixed well before transferring 10 μL of this solution from #D5 to #E5. The solution in #E5 is then mixed well before transferring 10 μL of this solution from #E5 to #F5. The solution in #F5 is then mixed well before transferring 10 μL of this solution from #F5 to #G5. The solution in #G5 is then mixed well before transferring 10 μL of this solution from #G5 to #H5.
(§5) A 30 μL aliquot is then transferred from #H5 to #H3 for row H, and the contents are mixed well. The analogous procedure is repeated for rows G, F, E, D, C, B, and A sequentially. The plate is then shaken on a plate shaker for 5 min before allowing the plate to incubate at room temperature for an additional 5 min.
(§6) Once the plate has been allowed to incubate, 30 μL of substrate is added to each well except well #A1. […] The absorbance is then immediately read at a wavelength of 410 nm.
(§7) In this example, the assay is conducted for DPIV and DP8 or DP9. The ratio of IC50 values for each tested compound is calculated in order to determine the selectivity for the DPIV isoform. […]

DP8 = DP8 (Homo sapiens (Human), UniProt Q6V1X1); assay: Selectivity for dipeptidyl peptidase isoforms, DP8; format: biochemical; settings: for DP8 Ratio: IC50 pH 7.8 to pH 2
Experimental: as §1, §2, §3, §4, §5, §6, §7

DP9 = DP9 (Homo sapiens (Human), UniProt Q86TI2); assay: Selectivity for dipeptidyl peptidase isoforms, DP9; format: biochemical; settings: for DP9 Ratio: IC50 pH 7.8 to pH 2
Experimental: as §1, §2, §3, §4, §5, §6, §7

DPPIV [3] = target: T1, DPPIV; assay: physchem; settings: pH 7.8
Experimental: DPP IV inhibition was measured at various times after the pH jump and the IC50 values were plotted as a function of time. […] This value was fit to a single exponential.

[4] = pH 2.0, read-out: IC50 (pH 2.0)
[5] = pH 8.0, read-out: IC50 (pH 8.0)
[6] = pH 2, read-out: IC50s DPPIV pH 2
[7] = pH 7.8, read-out: IC50s DPPIV pH 7.8
[8] = pH 7.8, read-out: IC50s DP8 pH 7.8
[9] = pH 7.8, read-out: IC50s DP9 pH 7.8

Chain of DP-IV (P22411 whole entry): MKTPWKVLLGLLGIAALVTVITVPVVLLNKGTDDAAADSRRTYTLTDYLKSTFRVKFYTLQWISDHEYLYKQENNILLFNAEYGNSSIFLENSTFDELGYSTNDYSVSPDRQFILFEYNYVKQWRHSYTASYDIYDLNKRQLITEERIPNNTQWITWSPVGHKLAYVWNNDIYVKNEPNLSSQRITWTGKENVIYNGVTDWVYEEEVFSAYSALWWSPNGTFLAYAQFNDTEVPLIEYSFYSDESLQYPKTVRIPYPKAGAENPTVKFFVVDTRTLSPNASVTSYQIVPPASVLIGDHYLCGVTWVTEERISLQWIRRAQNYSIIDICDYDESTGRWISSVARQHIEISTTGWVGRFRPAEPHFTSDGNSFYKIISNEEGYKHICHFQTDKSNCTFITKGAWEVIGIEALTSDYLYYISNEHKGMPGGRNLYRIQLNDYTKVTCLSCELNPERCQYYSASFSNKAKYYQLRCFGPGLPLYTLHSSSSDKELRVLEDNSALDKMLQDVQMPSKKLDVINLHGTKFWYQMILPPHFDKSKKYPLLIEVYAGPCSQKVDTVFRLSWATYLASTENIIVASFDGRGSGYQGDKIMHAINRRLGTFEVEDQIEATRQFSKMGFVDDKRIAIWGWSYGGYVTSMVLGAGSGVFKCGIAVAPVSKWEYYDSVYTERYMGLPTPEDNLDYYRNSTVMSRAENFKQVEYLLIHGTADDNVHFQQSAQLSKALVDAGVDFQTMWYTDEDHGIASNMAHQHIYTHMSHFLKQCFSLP
Chain of DP8 (Q6V1X1 whole entry, species assumed, canonical isoform): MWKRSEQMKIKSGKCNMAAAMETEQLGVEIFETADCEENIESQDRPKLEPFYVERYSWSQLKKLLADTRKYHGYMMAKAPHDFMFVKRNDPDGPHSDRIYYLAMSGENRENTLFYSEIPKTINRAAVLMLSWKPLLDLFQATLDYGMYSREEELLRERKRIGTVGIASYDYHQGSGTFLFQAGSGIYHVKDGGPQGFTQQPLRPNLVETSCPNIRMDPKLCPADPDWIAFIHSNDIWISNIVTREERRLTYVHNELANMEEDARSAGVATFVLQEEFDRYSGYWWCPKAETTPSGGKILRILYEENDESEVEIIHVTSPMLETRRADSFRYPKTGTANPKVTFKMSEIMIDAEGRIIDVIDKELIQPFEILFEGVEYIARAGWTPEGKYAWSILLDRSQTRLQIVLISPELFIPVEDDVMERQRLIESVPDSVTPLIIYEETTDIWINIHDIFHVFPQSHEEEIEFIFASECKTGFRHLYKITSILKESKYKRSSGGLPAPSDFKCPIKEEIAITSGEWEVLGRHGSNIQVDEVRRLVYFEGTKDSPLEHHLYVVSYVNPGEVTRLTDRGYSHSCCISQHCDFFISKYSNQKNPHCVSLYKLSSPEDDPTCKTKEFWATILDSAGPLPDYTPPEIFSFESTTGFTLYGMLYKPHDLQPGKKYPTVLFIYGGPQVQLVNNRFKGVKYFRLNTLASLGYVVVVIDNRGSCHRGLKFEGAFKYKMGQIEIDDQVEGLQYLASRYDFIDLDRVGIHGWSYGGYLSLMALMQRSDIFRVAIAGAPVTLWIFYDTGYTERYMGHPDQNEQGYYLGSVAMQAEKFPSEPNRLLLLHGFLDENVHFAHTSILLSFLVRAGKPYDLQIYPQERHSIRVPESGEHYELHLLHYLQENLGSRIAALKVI
Chain of DP9 (Q86TI2 whole entry, species assumed, canonical isoform): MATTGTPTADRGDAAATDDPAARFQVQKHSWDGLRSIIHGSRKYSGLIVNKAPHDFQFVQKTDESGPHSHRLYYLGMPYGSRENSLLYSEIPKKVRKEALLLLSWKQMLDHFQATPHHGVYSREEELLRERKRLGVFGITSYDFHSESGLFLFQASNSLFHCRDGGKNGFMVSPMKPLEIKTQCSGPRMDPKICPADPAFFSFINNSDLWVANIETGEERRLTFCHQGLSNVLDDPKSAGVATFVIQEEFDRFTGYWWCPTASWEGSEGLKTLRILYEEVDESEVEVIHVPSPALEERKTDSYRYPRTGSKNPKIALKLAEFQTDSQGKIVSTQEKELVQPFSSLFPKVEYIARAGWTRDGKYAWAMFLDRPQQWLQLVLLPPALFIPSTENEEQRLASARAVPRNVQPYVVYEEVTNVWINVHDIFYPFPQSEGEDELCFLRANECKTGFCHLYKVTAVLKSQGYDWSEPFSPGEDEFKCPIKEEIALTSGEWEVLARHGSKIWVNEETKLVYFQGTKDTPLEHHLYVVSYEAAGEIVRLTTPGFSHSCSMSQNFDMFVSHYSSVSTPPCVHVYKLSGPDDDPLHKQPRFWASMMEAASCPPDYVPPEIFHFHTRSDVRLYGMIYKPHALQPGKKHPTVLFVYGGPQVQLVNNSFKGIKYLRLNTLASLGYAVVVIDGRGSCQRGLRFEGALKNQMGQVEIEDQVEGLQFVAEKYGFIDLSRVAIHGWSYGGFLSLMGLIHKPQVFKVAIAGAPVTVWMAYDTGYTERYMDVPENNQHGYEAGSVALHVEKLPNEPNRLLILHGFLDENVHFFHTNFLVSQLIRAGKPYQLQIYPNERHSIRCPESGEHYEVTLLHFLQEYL
T1 sequence (P27487 whole entry, species assumed): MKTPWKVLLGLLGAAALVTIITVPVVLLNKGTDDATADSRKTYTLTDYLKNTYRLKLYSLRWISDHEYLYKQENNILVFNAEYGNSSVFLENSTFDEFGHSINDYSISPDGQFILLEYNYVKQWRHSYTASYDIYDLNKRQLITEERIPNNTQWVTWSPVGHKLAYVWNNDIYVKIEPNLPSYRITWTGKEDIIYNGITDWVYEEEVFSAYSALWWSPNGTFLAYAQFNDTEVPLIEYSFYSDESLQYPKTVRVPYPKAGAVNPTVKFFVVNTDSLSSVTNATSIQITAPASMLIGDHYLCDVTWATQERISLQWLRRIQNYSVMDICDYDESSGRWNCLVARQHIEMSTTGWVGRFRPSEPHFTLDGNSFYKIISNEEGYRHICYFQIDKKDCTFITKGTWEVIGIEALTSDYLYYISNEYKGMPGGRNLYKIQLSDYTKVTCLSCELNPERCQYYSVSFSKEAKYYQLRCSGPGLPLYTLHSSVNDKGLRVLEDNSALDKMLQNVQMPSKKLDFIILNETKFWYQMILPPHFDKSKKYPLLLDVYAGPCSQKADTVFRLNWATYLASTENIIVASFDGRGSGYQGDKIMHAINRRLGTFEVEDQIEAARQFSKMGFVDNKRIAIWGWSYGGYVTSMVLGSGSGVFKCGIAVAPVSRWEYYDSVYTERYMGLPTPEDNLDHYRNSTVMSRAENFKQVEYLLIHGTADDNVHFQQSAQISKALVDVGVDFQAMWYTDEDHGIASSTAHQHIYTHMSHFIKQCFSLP
Chain of Proteasome (P28074 60-263 limits assumed): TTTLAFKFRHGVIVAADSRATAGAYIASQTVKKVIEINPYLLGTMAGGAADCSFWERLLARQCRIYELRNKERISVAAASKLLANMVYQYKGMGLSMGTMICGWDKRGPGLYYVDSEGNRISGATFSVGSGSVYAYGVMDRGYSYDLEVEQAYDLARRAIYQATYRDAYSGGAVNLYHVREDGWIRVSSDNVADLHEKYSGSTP

Inactivation Index (DP-IV) | IC50 (DP-IV; [4]) [nM] | IC50 (DP-IV; [5]) [nM] | Molecule | other results
 |  |  | CC(C)C[C@H](NC(=S)[C@@H](N)Cc1ccccc1)B(O)O [Phe-boroLeu Thioxamide] | Inactivation Index (Proteasome): 20
1,600 | 4.5 | 7400 | N[C@@H](CCCC(=O)O)C(=O)N1CCC[C@H]1B(O)O [Aad-boroPro, reference compound] | 
7.0 | 63 | 440 | C[C@H](NC(=O)[C@H](C)N)B(O)O [Ala-boroAla, reference compound] | 
 |  |  | CC(C)C[C@H](NC(=O)[C@H](C)N)B(O)O [Ala-boroLeu, reference compound] | Inactivation Index (Proteasome): 3.2
 |  |  | C[C@H](N)C(=O)N1CCC[C@H]1B(O)O [Ala-boroPro, reference compound] | half-life [1]: 30 min
190 | 4.6 | 890 | N[C@@H](CCC(=O)O)C(=S)N1CCC[C@H]1B(O)O [Glu-boroPro Thioxamide] | DPPIV Ratio (DPPIV [2]): 190; IC50 (DPPIV [2]; [6]): 4.6 nM; IC50 (DPPIV [2]; [7]): 890 nM; DP8 Ratio (DP8): 130; Ratio DPP8 to DPIV (pH 2) (DP8; pH 2): 3.4; IC50 (DP8; pH 2, read-out: IC50s DP8 pH 2): 16 nM; IC50 (DP8; [8]): 2000 nM; DP9 Ratio (DP9): 180; Ratio DP9 To DPIV (pH 2) (DP9; pH 2): 1.9; IC50 (DP9; pH 2, read-out: IC50s DP9 pH 2): 8.7 nM; IC50 (DP9; [9]): 1800 nM
630 | 3 | 1900 | NCC(=S)N1CCC[C@H]1B(O)O [Gly-boroPro Thioxamide] | 
7,300 | 9.5 | 69000 | O=C(CNCc1ccccc1)N1CCC[C@H]1B(O)O [N-(Benzyl)-Gly-boroPro, reference compound] | 
 |  |  | Pro-boroAla (thioxam) | DPPIV Ratio (DPPIV [2]): 4.1; IC50 (DPPIV [2]; [6]): 76 nM; IC50 (DPPIV [2]; [7]): 310 nM; DP8 Ratio (DP8): 2.2; Ratio DPP8 to DPIV (pH 2) (DP8; pH 2): 1.8; IC50 (DP8; pH 2, read-out: IC50s DP8 pH 2): 140 nM; IC50 (DP8; [8]): 310 nM; DP9 Ratio (DP9): 1.3; Ratio DP9 To DPIV (pH 2) (DP9; pH 2): 1.1; IC50 (DP9; pH 2, read-out: IC50s DP9 pH 2): 85 nM; IC50 (DP9; [9]): 110 nM
1.2 | 6500 | 7700 | C[C@H](NC(=S)[C@H](C)N)B(O)O [Ala-boroAla Thioxamide] | 
500 | 6 | 3000 | N[C@@H](CCC(=O)O)C(=O)N1CCC[C@H]1B(O)O [Glu-boroPro, reference compound] | 
 |  |  | C[C@H](N)C(=S)N1CCC[C@H]1B(O)O [Ala-boroPro Thioxamide] | half-life [1]: 60 min; half-life (DPPIV [3]): 47 min
12,000 | 1.6 | 19000 | N[C@@H](CCCC(=O)O)C(=S)N1CCC[C@H]1B(O)O [Aad-boroPro Thioxamide] | 
2,300 | 4 | 9000 | N[C@H](C(=S)N1CCC[C@H]1B(O)O)C1CCCCC1 [Chg-boroPro Thioxamide] | 
 |  |  | CC(C)C[C@H](NC(=O)[C@@H](N)Cc1ccccc1)B(O)O [Phe-boroLeu (free Velcade), Phe-boroLeu, reference compound] | Inactivation Index (Proteasome): 7.5
1,100 | 6.4 | 7000 | OB(O)[C@@H]1CCCN1C(=S)[C@@H]1CCCN1 [Pro-boroPro Thioxamide] | IC50 (DPPIV [2]; [6]): 0.75 nM; DP8 Ratio (DP8): 720; Ratio DPP8 to DPIV (pH 2) (DP8; pH 2): 3.2; IC50 (DP8; pH 2, read-out: IC50s DP8 pH 2): 2.5 nM; IC50 (DP8; [8]): 1800 nM; DP9 Ratio (DP9): 180; Ratio DP9 To DPIV (pH 2) (DP9; pH 2): 2.5; IC50 (DP9; pH 2, read-out: IC50s DP9 pH 2): 1.9 nM; IC50 (DP9; [9]): 340 nM
1.7 | 42 | 72 | O=C(CNC12CC3CC(CC(O)(C3)C1)C2)N1CCC[C@H]1B(O)O [NVP-LAF237 analogue, reference compound] | 

Inactivation Index (DP-IV) | IC50 (DP-IV; [4]) [nM] | IC50 (DP-IV; [5]) [nM] | Molecule | other results
250 | 160 | 40000 | OB(O)[C@@H]1CCCN1C(=S)CNC12CC3CC(CC(O)(C3)C1)C2 [NVP-LAF237 analogue Thioxamide] | 
 |  |  | CC(C)C[C@H](NC(=O)CN)B(O)O [Gly-boroLeu, reference compound] | Inactivation Index (Proteasome): 11
 |  |  | CC(C)C[C@H](NC(=O)CNC(=S)c1cnccn1)B(O)O [N-(Pyrazine-2-carbothio)-Gly-boroLeu] | Inactivation Index (Proteasome): 4.5
1,700 | 17 | 28000 | N[C@@H](CC(=O)O)C(=S)N1CCC[C@H]1B(O)O [Asp-boroPro Thioxamide] | 
7,000 | 1 | 7000 | NCC(=O)N1CCC[C@H]1B(O)O [Gly-boroPro, reference compound] | 
3,900 | 1.8 | 7100 | N=C(N)NCCC[C@H](N)C(=O)N1CCC[C@H]1B(O)O [Arg-boroPro, reference compound] | 
 |  |  | CC(C)C[C@H](NC(=S)CNC(=O)c1cnccn1)B(O)O [N-(Pyrazine-2-carbonyl)-Gly-boroLeu Thioxamide] | Inactivation Index (Proteasome): 3.8
1500 | 2 | 3000 | N[C@@H](Cc1c[nH]c2ccccc12)C(=O)N1CCC[C@H]1B(O)O [Trp-boroPro, reference compound] | 
21,000 | 1.1 | 23000 | O=C([C@@H]1CCCN1)N1CCC[C@H]1B(O)O [Pro-boroPro, reference compound] | 
 |  |  | CC(C)C[C@H](NC(=S)CNC(=S)c1cnccn1)B(O)O [Pyz-Gly-boroLeu Perthioxamide] | Inactivation Index (Proteasome): 620
380 | 1 | 380 | Chg-boroPro [reference compound] | 
 |  |  | CC(C)C[C@H](NC(=S)CN)B(O)O [Gly-boroLeu Thioxamide] | Inactivation Index (Proteasome): 20
3.0 | 73 | 220 | CC(C)[C@H](N)C(=S)N[C@@H](C)B(O)O [Val-boroAla Thioxamide] | 
 | 1.2 |  | N=C(N)NCCC[C@H](N)C(=S)N1CCC[C@H]1B(O)O [Arg-boroPro Thioxamide] | IC50 (pH 8.0) (DP-IV; pH 8.0, result in words): No inhibition
 |  |  | CC(C)C[C@H](NC(=S)[C@H](C)N)B(O)O [Ala-boroLeu Thioxamide] | Inactivation Index (Proteasome): 110
7.1 | 24 | 170 | OB(O)[C@@H]1CCCN1C(=S)CNCc1ccccc1 [N-(Benzyl)-Gly-boroPro Thioxamide] | 
 |  |  | CC(C)C[C@H](NC(=S)[C@@H](N)CC(=O)O)B(O)O [Asp-boroLeu Thioxamide] | Inactivation Index (Proteasome): 2.2

Molecule | Inactivation Index (DP-IV) | IC50 (DP-IV; [4]) [nM] | IC50 (DP-IV; [5]) [nM] | other results
N[C@@H](Cc1c[nH]c2ccccc12)C(=S)N1CCC[C@H]1B(O)O [Trp-boroPro Thioxamide] | 440 | 1.6 | 700 | 

Source: patent publication US8933056B2, “Soft protease inhibitors and pro-soft forms thereof” (Trustees of Tufts College, priority 2005, dated 2015)
